Data reported in patent US8530487B1 (priority 2009, dated 2013).
pIC50: −log10 of the molar value.

The molecules below were run against human TRPA1 (Homo sapiens, UniProt O75762) (assay: cell-based). Conditions: not given.
Chain of human TRPA1 (O75762 whole entry): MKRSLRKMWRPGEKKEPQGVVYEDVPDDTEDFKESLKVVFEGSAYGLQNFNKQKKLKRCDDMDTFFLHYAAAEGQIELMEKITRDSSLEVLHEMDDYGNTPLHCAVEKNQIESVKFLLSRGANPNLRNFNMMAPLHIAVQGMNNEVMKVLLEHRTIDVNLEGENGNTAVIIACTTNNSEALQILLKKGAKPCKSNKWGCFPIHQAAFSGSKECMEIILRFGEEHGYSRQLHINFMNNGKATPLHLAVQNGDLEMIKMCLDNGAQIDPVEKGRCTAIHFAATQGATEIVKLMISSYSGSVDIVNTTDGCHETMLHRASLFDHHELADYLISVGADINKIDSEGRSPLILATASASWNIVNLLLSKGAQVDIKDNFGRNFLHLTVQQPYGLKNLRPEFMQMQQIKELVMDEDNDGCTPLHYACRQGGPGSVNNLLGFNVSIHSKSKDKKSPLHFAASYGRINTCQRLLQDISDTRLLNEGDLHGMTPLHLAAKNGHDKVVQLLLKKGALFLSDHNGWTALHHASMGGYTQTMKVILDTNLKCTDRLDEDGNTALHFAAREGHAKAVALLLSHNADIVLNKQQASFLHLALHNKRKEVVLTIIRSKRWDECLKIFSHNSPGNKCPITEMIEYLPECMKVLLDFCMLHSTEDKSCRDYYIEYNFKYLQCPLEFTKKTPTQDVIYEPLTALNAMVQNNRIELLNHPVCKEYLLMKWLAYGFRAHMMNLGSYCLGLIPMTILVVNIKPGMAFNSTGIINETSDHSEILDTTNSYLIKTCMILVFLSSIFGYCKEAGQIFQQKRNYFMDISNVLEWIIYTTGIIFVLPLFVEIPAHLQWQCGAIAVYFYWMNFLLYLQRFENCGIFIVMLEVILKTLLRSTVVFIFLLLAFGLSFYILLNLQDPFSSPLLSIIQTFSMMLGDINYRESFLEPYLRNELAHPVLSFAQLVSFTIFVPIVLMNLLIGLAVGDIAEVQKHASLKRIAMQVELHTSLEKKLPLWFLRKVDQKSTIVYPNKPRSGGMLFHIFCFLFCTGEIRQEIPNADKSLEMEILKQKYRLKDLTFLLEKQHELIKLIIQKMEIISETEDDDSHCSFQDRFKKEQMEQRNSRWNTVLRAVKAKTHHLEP

| SMILES | pIC50 |
| --- | --- |
| O=C1C2=C(NC(=S)NC2c2cccnc2)c2ccccc21 (centres unmarked) [Compound 33] | 6.00 to 6.30 |
| N#Cc1ccc(C2NC(=S)NC3=C2C(=O)c2ccccc23)cc1 (centres unmarked) [Compound 35] | 6.00 to 6.30 |
| O=C1C2=C(NC(=S)NC2c2ccccc2)c2ccccc21 (centres unmarked) [Compound 201] | > 7.00 |
| COc1cccc(C2NC(=O)NC3=C2C(=O)c2ccccc23)c1 (centres unmarked) [Compound 621] | 6.00 to 6.30 |
| O=C1C2=C(NC(=S)NC2c2ccccc2O)c2ccccc21 (centres unmarked) [Compound 15] | > 7.00 |

Same assay, conditions: read-out: Activity (IC50)

| SMILES | pIC50 |
| --- | --- |
| O=C1NC2=C(C(=O)c3ccccc32)C(c2cccc3c2OCO3)N1 (centres unmarked) [Compound 439] | < 6.00 |
| O=C1NC2=C(C(=O)c3c(O)cccc32)C(c2cc(O)ccc2Br)N1 (centres unmarked) [Compound 104] | < 6.00 |
| CCC[S+]([O-])c1cccc(C2NC(=O)NC3=C2C(=O)c2cccnc23)c1 (centres unmarked) [Compound 910] | < 6.00 |
| CCN(C(C)=O)c1cccc(C2NC(=O)NC3=C2C(=O)c2ccccc23)c1 (centres unmarked) [Compound 443] | < 6.00 |
| C=CCOc1cccc(C2NC(=O)NC3=C2C(=O)c2ccccc23)c1 (centres unmarked) [Compound 405] | > 7.00 |
| CCCC(=O)c1cccc(C2NC(=O)NC3=C2C(=O)c2cccnc23)c1 (centres unmarked) [Compound 909] | 6.30 to 7.00 |
| CN1C(=S)NC2=C(C(=O)c3ccccc32)C1c1ccccc1 (centres unmarked) [Compound 303] | < 6.00 |
| COc1cccc(C2NC(=O)N(C)C3=C2C(=O)c2ccccc23)c1 (centres unmarked) [Compound 622] | 6.30 to 7.00 |
| N#CN=C1NC2=C(C(=O)c3ccccc32)C(c2cccc(C#N)c2)N1 (centres unmarked) [Compound 955] | < 6.00 |
| N#CN=C1NC2=C(C(=O)c3ccccc32)C(c2cccc(OCC3CCC3)c2)N1 (centres unmarked) [Compound 958] | < 6.00 |
| CCCOc1cccc(C2NC(=O)N(CC)C3=C2C(=O)c2ccccc23)c1 (centres unmarked) [Compound 646] | > 7.00 |
| O=C1NC2=C(C(=O)c3ccccc32)C(c2cccc3c2OC(F)(F)O3)N1 (centres unmarked) [Compound 440] | < 6.00 |
| O=C1NC2=C(C(=O)c3ccccc32)C(c2cccs2)N1 (centres unmarked) [Compound 502] | < 6.00 |
| O=C1NC2=C(C(=O)c3ccccc32)C(c2cc(O)ccc2Br)N1 (centres unmarked) [Compound 102] | 6.30 to 7.00 |
| CCCOc1cccc(C2NC(=NC#N)NC3=C2C(=O)c2ccccc23)c1 (centres unmarked) [Compound 960] | < 6.00 |
| CCCCc1cccc(C2NC(=O)NC3=C2C(=O)c2ccccc23)c1 (centres unmarked) [Compound 427] | 6.00 to 6.30 |
| CCCC(O)c1cccc(C2NC(=O)NC3=C2C(=O)c2cccnc23)c1 (centres unmarked) [Compound 908] | 6.30 to 7.00 |
| CCCOc1cc(F)cc(C2NC(=O)NC3=C2C(=O)c2ccccc23)c1F (centres unmarked) [Compound 404] | > 7.00 |
| CCCOc1cccc(C2NC(=O)NC3=C2C(=O)c2cccnc23)c1 (centres unmarked) [Compound 904] | > 7.00 |
| C=CCC(F)c1cccc(C2NC(=O)NC3=C2C(=O)c2cccnc23)c1 (centres unmarked) [Compound 905] | > 7.00 |
| O=C1C2=C(c3ccccc31)N(Cc1ccccc1)C(=O)NC2c1cccc(OC(F)F)c1 (centres unmarked) [Compound 620] | > 7.00 |

| SMILES | pIC50 |
| --- | --- |
| O=C1NC2=C(C(=O)c3ccc(O)cc32)C(c2cc(O)ccc2Br)N1 (centres unmarked) [Compound 106] | < 6.00 |
| O=C1NC2=C(C(=O)c3ccccc32)C(c2ccccc2O)N1 (centres unmarked) [Compound 435] | < 6.00 |
| O=C1NC2=C(C(=O)c3ccccc32)C(c2cccc(OCC3CCC3)c2)N1 (centres unmarked) [Compound 461] | < 6.00 |
| COc1cccc(C2NC(=O)N(Cc3ccccc3)C3=C2C(=O)c2ccccc23)c1 (centres unmarked) [Compound 625] | 6.30 to 7.00 |
| C=CCOc1cccc(C2NC(=O)NC3=C2C(=O)c2ccccc23)c1F (centres unmarked) [Compound 401] | > 7.00 |
| N#CCN1C(=O)NC(c2cccc(OC(F)F)c2)C2=C1c1ccccc1C2=O (centres unmarked) [Compound 618] | > 7.00 |
| N#Cc1cccc(C2NC(=S)NC3=C2C(=O)c2ccccc23)c1 (centres unmarked) [Compound 307] | > 7.00 |
| COc1ccc(Cl)c(C2NC(=O)NC3=C2C(=O)c2ccccc23)c1 (centres unmarked) [Compound 429] | < 6.00 |
| O=C1NC2=C(C(=O)c3cc(Cl)ccc32)C(c2cc(O)ccc2Br)N1 (centres unmarked) [Compound 103] | < 6.00 |
| CN1C(=S)NC(c2cccc(C#N)c2)C2=C1c1ccccc1C2=O (centres unmarked) [Compound 308] | > 7.00 |
| CCCOc1cccc(C2NC(=O)NC3=C2C(=O)c2ccccc23)c1 (centres unmarked) [Compound 407] | > 7.00 |
| N#CN=C1NC2=C(C(=O)c3ccccc32)C(c2cccc(OCC3CC3)c2Cl)N1 (centres unmarked) [Compound 957] | < 6.00 |
| N#CN=C1NC2=C(C(=O)c3ccccc32)C(c2ccccc2)N1 (centres unmarked) [Compound 956] | < 6.00 |
| CN1C(=O)NC(c2cccc(OCC3CC3)c2)C2=C1c1ccccc1C2=O (centres unmarked) [Compound 641] | 6.30 to 7.00 |
| O=C1NC2=C(C(=O)c3ccccc32)C(c2cccc(O)c2)N1 (centres unmarked) [Compound 436] | < 6.00 |
| COc1ccc(F)c(C2NC(=O)NC3=C2C(=O)c2ccccc23)c1 (centres unmarked) [Compound 432] | < 6.00 |
| CCCCOc1cccc(C2NC(=O)NC3=C2C(=O)c2ccccc23)c1 (centres unmarked) [Compound 408] | > 7.00 |
| CCCOc1ccc(F)c(C2NC(=O)N(CC#N)C3=C2C(=O)c2ccccc23)c1F (centres unmarked) [Compound 648] | > 7.00 |
| CCN1C(=O)NC(c2cccc(OC(F)F)c2)C2=C1c1ccccc1C2=O (centres unmarked) [Compound 619] | 6.30 to 7.00 |
| C=CCOc1cccc(C2NC(=O)NC3=C2C(=O)c2ccccc23)c1C(F)(F)F (centres unmarked) [Compound 642] | < 6.00 |
| O=C1C2=C(NC(=S)NC2c2ccccc2)c2ccccc21 (centres unmarked) [Compound 301] | > 7.00 |

| SMILES | pIC50 |
| --- | --- |
| CC(F)(F)Oc1cccc(C2NC(=O)NC3=C2C(=O)c2ccccc23)c1 (centres unmarked) [Compound 450] | < 6.00 |
| O=C1NC2=C(C(=O)c3ccccc32)C(c2ccc3c(c2)OCO3)N1 (centres unmarked) [Compound 457] | < 6.00 |
| COCCOc1cccc(C2NC(=O)NC3=C2C(=O)c2ccccc23)c1 (centres unmarked) [Compound 462] | 6.30 to 7.00 |
| O=C1NC2=C(C(=O)c3ccccc32)C(c2cccc(OC(F)F)c2)N1 (centres unmarked) [Compound 414] | 6.30 to 7.00 |
| C=CC(F)(F)Oc1cccc(C2NC(=O)N(Cc3ccccc3)C3=C2C(=O)c2ccccc23)c1 (centres unmarked) [Compound 649] | < 6.00 |
| C=CCOc1cccc(C2NC(=O)N(Cc3ccc(F)cc3)C3=C2C(=O)c2ccccc23)c1 (centres unmarked) [Compound 633] | > 7.00 |
| C=CCOc1cc(Cl)cc(C2NC(=O)NC3=C2C(=O)c2ccccc23)c1 (centres unmarked) [Compound 406] | > 7.00 |
| O=C1NC2=C(C(=O)c3cc(O)ccc32)C(c2cc(O)ccc2Br)N1 (centres unmarked) [Compound 105] | < 6.00 |
| CCOC(=O)CN1C(=O)NC(c2cccc(OCC)c2)C2=C1c1ccccc1C2=O (centres unmarked) [Compound 608] | > 7.00 |
| C=CCOc1ccc(F)c(C2NC(=O)NC3=C2C(=O)c2ccccc23)c1 (centres unmarked) [Compound 417] | 6.30 to 7.00 |
| O=C1NC2=C(C(=O)c3ccccc32)C(c2cccc(OCC3CC3)c2)N1 (centres unmarked) [Compound 422] | 6.30 to 7.00 |
| CCOc1cccc(C2NC(=O)N(CC(=O)OC(C)(C)C)C3=C2C(=O)c2ccccc23)c1 (centres unmarked) [Compound 609] | 6.00 to 6.30 |
| C=CCOc1ccc(Cl)c(C2NC(=O)NC3=C2C(=O)c2ccccc23)c1 (centres unmarked) [Compound 637] | 6.30 to 7.00 |
| CCOc1cccc(C2NC(=O)NC3=C2C(=O)c2ccccc23)c1F (centres unmarked) [Compound 409] | > 7.00 |
| CCCOc1ccc(F)c(C2NC(=O)NC3=C2C(=O)c2cccnc23)c1F (centres unmarked) [Compound 912] | > 7.00 |
| CCOc1cccc(C2NC(=O)N(CC)C3=C2C(=O)c2ccccc23)c1 (centres unmarked) [Compound 604] | > 7.00 |
| COCCN1C(=O)NC(c2cccc(OC)c2)C2=C1c1ccccc1C2=O (centres unmarked) [Compound 627] | 6.30 to 7.00 |
| O=C1NC2=C(C(=O)c3ccccc32)C(c2cccc(OC(F)(F)C(F)F)c2)N1 (centres unmarked) [Compound 451] | < 6.00 |
| C=CCC(F)c1cccc(C2NC(=O)NC3=C2C(=O)c2ccccc23)c1 (centres unmarked) [Compound 402] | > 7.00 |
| COc1cccc(C2NC(=O)N(CCN(C)C)C3=C2C(=O)c2ccccc23)c1 (centres unmarked) [Compound 628] | < 6.00 |
| CC(C)COc1cccc(C2NC(=NC#N)NC3=C2C(=O)c2ccccc23)c1 (centres unmarked) [Compound 959] | < 6.00 |

| SMILES | pIC50 |
| --- | --- |
| CCOc1cccc(C2NC(=O)NC3=C2C(=O)c2cccnc23)c1 (centres unmarked) [Compound 902] | 6.30 to 7.00 |
| COCc1cccc(C2NC(=O)NC3=C2C(=O)c2ccccc23)c1 (centres unmarked) [Compound 453] | < 6.00 |
| COc1cccc(C2NC(=O)NC3=C2C(=O)c2ccccc23)c1Cl (centres unmarked) [Compound 428] | < 6.00 |
| C=CCOc1cccc(C2NC(=O)NC3=C2C(=O)c2ccccc23)c1Cl (centres unmarked) [Compound 640] | > 7.00 |
| C=CCOc1cccc(C2NC(=O)N(Cc3ccccn3)C3=C2C(=O)c2ccccc23)c1 (centres unmarked) [Compound 636] | 6.30 to 7.00 |
| C=CCOc1cccc(C2NC(=O)N(CC(=O)OCC)C3=C2C(=O)c2ccccc23)c1 (centres unmarked) [Compound 631] | > 7.00 |
| COc1cc(OC)cc(C2NC(=O)NC3=C2C(=O)c2ccccc23)c1 (centres unmarked) [Compound 458] | < 6.00 |
| CCN1C(=O)NC(c2cccc(OC)c2)C2=C1c1ccccc1C2=O (centres unmarked) [Compound 623] | 6.30 to 7.00 |
| CCCCCOc1cccc(C2NC(=O)NC3=C2C(=O)c2ccccc23)c1 (centres unmarked) [Compound 460] | < 6.00 |
| COc1cccc(C2NC(=O)NC3=C2C(=O)c2ccccc23)c1OC (centres unmarked) [Compound 438] | < 6.00 |
| C=CCOc1cccc(C2NC(=O)N(C)C3=C2C(=O)c2ccccc23)c1C(F)(F)F (centres unmarked) [Compound 643] | < 6.00 |
| CCCOc1cccc(C2NC(=O)N(CC#N)C3=C2C(=O)c2ccccc23)c1 (centres unmarked) [Compound 615] | > 7.00 |
| O=C1NC2=C(C(=O)c3ccccc32)C(c2cccc(Cl)c2Cl)N1 (centres unmarked) [Compound 446] | < 6.00 |
| C=CCOc1cccc(C2NC(=O)NC3=C2C(=O)c2ccccc23)c1OC (centres unmarked) [Compound 455] | < 6.00 |
| CN1C(=S)NC(c2ccccc2)C2=C1c1ccccc1C2=O (centres unmarked) [Compound 302] | > 7.00 |
| CCOc1ccc(F)c(C2NC(=O)NC3=C2C(=O)c2ccccc23)c1F (centres unmarked) [Compound 420] | 6.30 to 7.00 |
| CCCS(=O)(=O)c1cccc(C2NC(=O)NC3=C2C(=O)c2cccnc23)c1 (centres unmarked) [Compound 911] | < 6.00 |
| CCOc1cccc(C2NC(=O)N(Cc3ccncc3)C3=C2C(=O)c2ccccc23)c1 (centres unmarked) [Compound 613] | < 6.00 |
| O=C1NC2=C(C(=O)c3ccccc32)C(c2ccccc2Cl)N1 (centres unmarked) [Compound 426] | 6.00 to 6.30 |
| COc1cccc(C2NC(=O)N(CCO)C3=C2C(=O)c2ccccc23)c1 (centres unmarked) [Compound 626] | < 6.00 |
| CN1C(=NC#N)NC2=C(C(=O)c3ccccc32)C1c1cccc(OCC2CC2)c1 (centres unmarked) [Compound 952] | < 6.00 |
